Test results taken from PubChem BioAssay (NCI).
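Growth conditions: 96-well plates. Treatment: test compound, 48 hours, 5 concentrations. Analysis: linear interpolation between bracketing concentrations; unreached endpoints set to highest concentration. At the TGI there is no net growth.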

Tested on: OVCAR-3 ovarian
Test: DTP human tumour cell line panel, 48 h

| Structure (SMILES) | TGI [µM] |
| --- | --- |
| CCOC(=O)Cc1nc2cc(F)c(F)cc2[nH]c1=O | > 100 |
| CCOc1ncn(-c2ccc(NC(=S)NC3OC(CO)C(O)C(O)C3O)cc2)n1 (stereo not drawn) | > 100 |
| Cn1c([C@H](C#N)c2ncccc2[N+](=O)[O-])nc2ccccc21 | > 100 |
| COCc1nc2c(OC)c(-c3nc4nc(N5CCN(C)CC5)ccc4[nH]3)cc(OC)c2n1C | > 100 |
| O=C(c1ccco1)N(C(=S)OCCOc1ccccc1)c1ccccc1 | 32.2 |
| N#C[C@@H](c1ccccn1)c1ncccc1[N+](=O)[O-] | > 100 |
| COC(=O)C1=CS/C(=C2\S[C@@H]3[C@H](S2)[C@H]2C=C[C@@H]3C2)S1 | > 100 |
| CC(=O)Oc1ccc2cc(-c3ccccc3OC(C)=O)c(=O)oc2c1 | > 100 |
| CC(CC[C@@]1(C)C(=O)CCC2O[C@]21C)[C@H]1C[C@@H](c2ccoc2)OC1=O (stereo partly drawn) | 66.1 |
| CN(C(=O)Cc1cccc(N=C=S)c1)[C@H]1CCCC[C@@H]1N1CCCC1 | 28 |
| O=C(NC(Cc1ccccc1)(Cc1ccc(O)cn1)C(=O)O)c1ccccc1 (stereo not drawn) | > 100 |
| O=C1c2ccsc2C(=O)c2sc(CO)cc21 | 2.74 |
| N#C/C(=C/NC(N)=S)C(N)=O | > 100 |
| O=C(c1cccs1)N1CCc2ccccc2C1 | > 100 |
| O=c1c2ccccc2nc(Cc2nc(-c3ccc(Cl)cc3)cs2)n1-c1ccc(Cl)cc1 | > 100 |
| CCN(CC)CCSc1c2cc(OC)ccc2nc2ccc(OC)cc12 | 8.07 |
| CCOC(=O)c1ccc(NCc2ccc3oc(=O)c(-c4ccccc4)nc3c2)cc1 | 90.5 |
| CCOC(=O)C1C(=O)CC1(C)C (stereo not drawn) | > 10 |

Tested on: OVCAR-8 ovarian
Test: DTP human tumour cell line panel, 48 h

| Structure (SMILES) | TGI [µM] |
| --- | --- |
| C(/C=C/Nc1ccc(Oc2ccccc2)cc1)=Nc1ccc(Oc2ccccc2)cc1 | 38.8 |
| C[C@@H](c1ccccc1)n1c(N)c(C#N)c2ccc([N+](=O)[O-])cc2c1=O | 30.6 |
| CC1(C)OC(=O)N(c2ccccc2)C12C=Cc1cc([N+](=O)[O-])ccc1O2 (stereo not drawn) | > 100 |
| O=C1CC(c2cccc([N+](=O)[O-])c2)C2(C(=O)NC(=O)NC2=O)C(c2cccc([N+](=O)[O-])c2)C1 (stereo not drawn) | > 100 |
| Nc1nc(-c2ccccc2)cc(-c2ccc(OCc3ccccc3)cc2O)n1 | > 100 |
| CCCc1c(O)nc(Nc2nc3ccccc3[nH]2)[nH]c1=O | > 100 |
| COC1=C(OC)C(=O)C(Cc2c(C)nc3sccn23)=C(C)C1=O | 33.6 |
| CCOC(=O)Cc1nc2cc(F)c(F)cc2[nH]c1=O | > 100 |
| CCOc1ncn(-c2ccc(NC(=S)NC3OC(CO)C(O)C(O)C3O)cc2)n1 (stereo not drawn) | > 100 |
| Cn1c([C@H](C#N)c2ncccc2[N+](=O)[O-])nc2ccccc21 | > 100 |
| COCc1nc2c(OC)c(-c3nc4nc(N5CCN(C)CC5)ccc4[nH]3)cc(OC)c2n1C | > 100 |
| O=C(c1ccco1)N(C(=S)OCCOc1ccccc1)c1ccccc1 | 38.2 |
| N#C[C@@H](c1ccccn1)c1ncccc1[N+](=O)[O-] | > 100 |
| COC(=O)C1=CS/C(=C2\S[C@@H]3[C@H](S2)[C@H]2C=C[C@@H]3C2)S1 | > 100 |
| CC(=O)Oc1ccc2cc(-c3ccccc3OC(C)=O)c(=O)oc2c1 | > 100 |
| CN(C(=O)Cc1cccc(N=C=S)c1)[C@H]1CCCC[C@@H]1N1CCCC1 | 42.2 |
| O=C(NC(Cc1ccccc1)(Cc1ccc(O)cn1)C(=O)O)c1ccccc1 (stereo not drawn) | > 100 |
| O=C1c2ccsc2C(=O)c2sc(CO)cc21 | 0.38 |
| N#C/C(=C/NC(N)=S)C(N)=O | > 100 |
| O=c1c2ccccc2nc(Cc2nc(-c3ccc(Cl)cc3)cs2)n1-c1ccc(Cl)cc1 | > 100 |
| CCN(CC)CCSc1c2cc(OC)ccc2nc2ccc(OC)cc12 | 35.3 |
| CCOC(=O)c1ccc(NCc2ccc3oc(=O)c(-c4ccccc4)nc3c2)cc1 | 65 |
| CCOC(=O)C1C(=O)CC1(C)C (stereo not drawn) | > 10 |

Tested on: SK-MEL-5 melanoma
Test: DTP human tumour cell line panel, 48 h

| Structure (SMILES) | TGI [µM] |
| --- | --- |
| Nc1nc(-[n+]2ccc(-c3ccncc3)cc2)nc(Cl)c1Cl | > 100 |
| C[C@@H](c1ccccc1)n1c(N)c(C#N)c2ccc([N+](=O)[O-])cc2c1=O | 50.8 |
| CC1(C)OC(=O)N(c2ccccc2)C12C=Cc1cc([N+](=O)[O-])ccc1O2 (stereo not drawn) | > 100 |
| O=C1CC(c2cccc([N+](=O)[O-])c2)C2(C(=O)NC(=O)NC2=O)C(c2cccc([N+](=O)[O-])c2)C1 (stereo not drawn) | > 100 |
| Nc1nc(-c2ccccc2)cc(-c2ccc(OCc3ccccc3)cc2O)n1 | 35.5 |
| CCCc1c(O)nc(Nc2nc3ccccc3[nH]2)[nH]c1=O | > 100 |
| COC1=C(OC)C(=O)C(Cc2c(C)nc3sccn23)=C(C)C1=O | 17.6 |
| CCOC(=O)Cc1nc2cc(F)c(F)cc2[nH]c1=O | > 100 |
| CCOc1ncn(-c2ccc(NC(=S)NC3OC(CO)C(O)C(O)C3O)cc2)n1 (stereo not drawn) | > 100 |
| N#C[C@@H](c1ccccn1)c1ncccc1[N+](=O)[O-] | > 100 |
| COC(=O)C1=CS/C(=C2\S[C@@H]3[C@H](S2)[C@H]2C=C[C@@H]3C2)S1 | > 100 |
| CC(CC[C@@]1(C)C(=O)CCC2O[C@]21C)[C@H]1C[C@@H](c2ccoc2)OC1=O (stereo partly drawn) | > 100 |
| CN(C(=O)Cc1cccc(N=C=S)c1)[C@H]1CCCC[C@@H]1N1CCCC1 | 20.4 |
| O=C(NC(Cc1ccccc1)(Cc1ccc(O)cn1)C(=O)O)c1ccccc1 (stereo not drawn) | > 100 |
| O=C1c2ccsc2C(=O)c2sc(CO)cc21 | 0.0163 |
| N#C/C(=C/NC(N)=S)C(N)=O | > 100 |
| O=C(c1cccs1)N1CCc2ccccc2C1 | > 100 |
